The text below walks through data of US9933367B2, “Method to identify and isolate pluripotent stem cells using endogenous blue fluorescence” (NATIONAL CENTRE FOR BIOLOGICAL SCIENCES, priority 2012, dated 2018).

“Also recorded” adds a separate entry of the source.

The test system of one assay is HPSCs. Put plainly: Supplementing HPSC culture media with retinyl palmitate or retinol; blue fluorescence of lipid bodies. The assay is classed as cell-based, human. The text has this: All non-confocal epifluorescence images are obtained with a Nikon Eclipse TE2000-E-PFS (Japan) microscope with a Photometrix Cascade II 512 EM-CCD camera (Roper Scientific, USA) and Image Pro-Plus AMS software (Media Cybernetics, USA). The Nikon objectives used are 60×/NA1.4 oil immersions and 10×/NA 0.3 for all experiments. Fluorescence is visualized using band pass filters (Chroma Technology, USA). The filters used are Blue (Exciter—350 nm/50, Dichoric—400 nm long pass, Emitter—460 nm/50), Green (Exciter—500 nm/20, Dichoric—535 nm/30, Emitter—515 long pass) and Red (Exciter—450 nm/30, Dichoric—620 nm/0, Emitter—570 long pass). Confocal images are acquired using a Zeiss LSM 510 Meta Confocal set up with a 63× objective and a 405 laser (excitation—405 nm, emission—about 420 nm to about 490 nm). […] For quantitative analysis and depiction of images for direct comparison, for e.g. between mouse ES cells and human ES cells, all the images presented have the same intensity scale bounded by the adjusted maximum value of the HuES cell image. Scatter plot and linear fit analyses of pluripotency marker expression (OCT4, SOX2 and Nanog) and blue fluorescence is performed with fluorescence intensity values of individual pixels using the ‘plot profile’ application from ImageJ. […] The increase in fluorescence intensities is also found to be confined to the lipid bodies.

For assay [1], the system named is mouse embryonic stem cells. Put plainly: Mouse ES cells grown in media with additional retinol; blue fluorescence and lipid bodies. In kind it is cell-based. The following applies: 20% KOSR media with retinol, 48 hours. The text has this: The increase in fluorescence intensities is also found to be confined to the lipid bodies.
Another assay relates to HuES cells. The assay can be described thus: HuES cells in retinol-free E8 media supplemented with retinol; fluorescent lipid bodies. The assay is classed as cell-based, human. The following applies: HuES cells cultured in E8 media (lacks retinol), retinol 10 μM added. The protocol:
HuES cells cultured in E8 media show a rapid decrease in lipid bodies along with associated fluorescence in 24 hours, and the lipid bodies are completely absent by 72 hours (FIG. 10). […] A possible reason could be the differential expression of proteins involved in retinoid uptake and metabolism between the two states/cell types.

On to `CC1=C(/C=C/C(C)=C/C=C/C(C)=C/CO)C(C)(C)CCC1` [retinol], for which the “blue fluorescence in the HPSCs emanating from the lipid bodies” value with HPSCs (culture media supplemented with retinol) is “dose-dependent increase”. In addition, the “retinoid-associated (blue) fluorescence” value in assay [1] was “practically no increase; also recorded: do not show any increase in blue fluorescence”. For the same compound, the “fluorescent lipid bodies after addition to E8 cultures” value with HuES cells is on record as “re-appearance of fluorescent lipid bodies; also recorded: regain blue fluorescent lipid bodies in 48 hours”.

Consider `CCCCCCCCCCCCCCCC(=O)OC/C=C(C)/C=C/C=C(C)/C=C/C1=C(C)CCCC1(C)C` [retinyl palmitate], for which the “mean blue fluorescence intensity in the lipid bodies” value in the assay with HPSCs (HPSCs on MEF feeder cells, typical media with 20% KOSR, supplemented at 2-10 μM, after 24 hours) is given as “dose-dependent saturable increase; also recorded: dose dependent increase in blue fluorescence”.
